According to patent US9073929B2, “Aldosterone synthase inhibitors” (ElexoPharm GmbH, priority 2011, dated 2015):

What was measured:
Type in all cases: cell-based
human CYP11B1 [1] = molecular target: T1, human CYP11B1 (Homo sapiens, UniProt P15538); experiment: V79MZh11B1 cell assay, [3H]-deoxycorticosterone, HPLC radioflow detection; conditions: V79MZh11B1 cells, 100 nM deoxycorticosterone, 25 min, read-out: V79 Human CYP11B1 IC50
T1 construct: expressed in transfected cells; host or cells: V79MZh11B1 cells
T1 sequence (P15538 25-503): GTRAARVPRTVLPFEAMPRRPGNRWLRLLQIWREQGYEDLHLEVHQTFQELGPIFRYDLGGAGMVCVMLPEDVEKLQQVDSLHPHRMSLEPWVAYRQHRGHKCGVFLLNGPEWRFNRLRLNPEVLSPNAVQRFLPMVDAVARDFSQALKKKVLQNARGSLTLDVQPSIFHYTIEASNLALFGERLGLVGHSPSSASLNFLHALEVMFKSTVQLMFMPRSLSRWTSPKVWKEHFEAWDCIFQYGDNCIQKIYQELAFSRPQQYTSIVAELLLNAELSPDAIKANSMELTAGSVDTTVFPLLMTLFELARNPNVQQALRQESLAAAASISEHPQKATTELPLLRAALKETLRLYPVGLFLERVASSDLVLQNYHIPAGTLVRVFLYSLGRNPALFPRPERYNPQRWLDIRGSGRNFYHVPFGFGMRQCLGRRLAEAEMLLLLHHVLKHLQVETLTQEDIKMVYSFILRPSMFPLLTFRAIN
Description: (§1) Compounds of the Examples 157-170 were assayed for V79-Human-CYP11B2 and V79-Human-CYP11B1 by modifying the protocol described in J. Steroid Biochem. Mol. Biol. 81; 173-179 (2002). V79MZh11B1 and V79MZh11B2 cells (8×10^5 cells/well) were grown on 24-well culture plates until confluence. Before testing, the DMEM culture medium was removed and 450 μl of fresh DMEM containing the inhibitor was added to each well. After a preincubation step of 60 min at 37° C., the reaction was started by the addition of 50 μl of DMEM in which the substrate deoxycorticosterone (containing 0.15 μCi of [1,2-3H]-deoxycorticosterone in ethanol, final test concentration 100 nM) was dissolved. Incubation times were 25 min for V79MZh11B1 and 50 min for V79MZh11B2 cells at 37° C., respectively. The enzyme reactions were stopped by extracting the supernatant with ethyl acetate. Samples were centrifuged (10.000 g, 5 min) and the solvent was pipetted into fresh cups. After evaporation of the solvent, the steroids were redissolved in 40 μl of […] and analyzed by HPLC. Detection and quantification of the steroids were performed using a radioflow detector. […] The inhibitor concentrations were all in the linear range of the dose-response-curves, so that the coefficients of correlation were at least 0.95 for each determination. The final IC50 value was estimated as the average of three or four independent IC50 values and a selectivity factor corresponding to the ratio between the IC50 values of CYP11B1 and CYP11B2 was calculated for each substance.

human CYP11B2 [2] = molecular target: T2, human CYP11B2 (Homo sapiens, UniProt P19099); experiment: V79MZh11B2 cell assay, [3H]-deoxycorticosterone, HPLC radioflow detection; conditions: V79MZh11B2 cells, 100 nM deoxycorticosterone, 50 min, read-out: V79 Human CYP11B2 IC50
T2 construct: expressed in transfected cells; host or cells: V79 cells (clone V79-hCYP11B2-CLE9)
T2 sequence (P19099 25-503): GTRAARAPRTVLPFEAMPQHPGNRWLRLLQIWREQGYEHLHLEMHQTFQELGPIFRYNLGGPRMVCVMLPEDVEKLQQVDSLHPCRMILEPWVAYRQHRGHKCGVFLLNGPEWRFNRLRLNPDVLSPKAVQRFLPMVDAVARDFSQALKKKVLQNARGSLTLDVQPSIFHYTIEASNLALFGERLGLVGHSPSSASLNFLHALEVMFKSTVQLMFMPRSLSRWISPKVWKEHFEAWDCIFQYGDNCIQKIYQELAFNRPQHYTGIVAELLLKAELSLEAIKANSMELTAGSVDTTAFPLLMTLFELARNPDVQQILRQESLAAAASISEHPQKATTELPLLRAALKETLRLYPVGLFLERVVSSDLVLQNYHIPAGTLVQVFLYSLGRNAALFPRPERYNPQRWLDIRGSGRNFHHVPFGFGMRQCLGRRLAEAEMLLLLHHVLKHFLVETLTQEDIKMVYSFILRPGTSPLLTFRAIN
Description: as §1

human CYP11B1 [3] = molecular target: T1, human CYP11B1; experiment: V79-Human-CYP11B1 cell assay, modified protocol (280,000 cells/mL); conditions: 0.30 μl inhibitor
Description: (§2) V79 cell lines stably expressing the either the human CYP11B2 or the human CYP11B1 enzyme were generated using a standard transfection protocol. V79 cells were transfected with plasmids pTriEx3-Hygro-hCyp11B2 or pTriEx3-Hygro-hCyp11B1 using Lipofectamine2000 reagent. V79 cells that stably express the human CYP11B2 or human CYP11B1 enzyme were selected for and maintained in DMEM supplemented with 10% FBS and 400 μg/mL hygromycin for ˜2 weeks. Single cell clones were generated by infinite dilution in DMEM supplemented with 10% FBS and 400 μg/mL hygromycin until single colonies were obtained. […] For testing of inhibitors, cells were harvested at 80% confluency with 0.5% Trypsan-EDTA, washed once in PBS, and reconstituted in DMEM+0.1% BSA media at a cell concentration of 400,000 cells/mL. 25 μl of cells were added to a 384 well tissue culture treated plate and mixed with 0.25 μl of inhibitor or DMSO (1% final DMSO concentration) for 1 hour at 37° C., 5% CO2. After pre-incubation with inhibitor, the reaction was initiated by adding 5 μl of substrate (final concentration of 125 nM 11-deoxycorticosterone for the CYP11B2 assay or 250 nM 11-deoxycortisol for the CYP11B1 assay). The reaction was carried out for 3 hours at 37° C., 5% CO2 and was stopped by harvesting the supernatants. The amount of product in the supernatant (aldosterone for CYP11B2 assay and cortisol for the CYP11B1 assay) was measured using HTRF-based assay kit (Aldosterone HTRF-CisBio#64ALDPEB, Cortisol HTRF-CisBio #631DC002-CORT). IC50's for the inhibitor were determined by plotting the amount of product formed against the concentration of inhibitor using sigmoidal dose-response curve (variable slope) fit in GraphPad.
(§3) For the CYP11B2 assay, cells were reconstituted in DMEM+0.1% BSA media at a cell concentration of 600,000 cells/mL and for the CYP11B1 assay cells were reconstituted in DMEM+0.1% BSA media at a cell concentration of 280,000 cells/mL. 25 μl of cells were added to a 384 well tissue culture treated plate and mixed with 0.30 μl of inhibitor or DMSO (1% final DMSO concentration) for 1 hour at 37° C., 5% CO2.

human CYP11B2 [4] = molecular target: T2, human CYP11B2; experiment: V79-Human-CYP11B2 cell assay, modified protocol (600,000 cells/mL); conditions: 0.30 μl inhibitor
Description: as §2, §3

Compound	IC50 (human CYP11B1 [1])	IC50 (human CYP11B2 [2])	IC50 (human CYP11B1 [3])	IC50 (human CYP11B2 [4])
Cc1nnc2n1-c1c(F)cc(-c3cncc(F)c3)cc1CC2 [Example 157, 9-fluoro-7-(5-fluoro-pyridin-3-yl)-1-methyl-4,5-dihydro-[1,2,4]triazolo[4,3-a]quinoline]	29.5 µM	89.7 nM		
CCc1c(F)cncc1-c1cc(Cl)c2c(c1)CCc1nnc(C)n1-2 [Example 80, 9-chloro-7-(4-ethyl-5-fluoropyridin-3-yl)-1-methyl-4,5-dihydro[1,2,4]triazolo-[4,3-a]quinoline]			3.14 µM	7 nM
Fc1cc(-c2cccnc2)cc2c1-n1cnnc1CC2 [Example 166, 9-fluoro-7-pyridin-3-yl-4,5-dihydro-[1,2,4]triazolo[4,3-a]quinoline]	16.1 µM	172 nM		
Cc1nnc2n1-c1c(F)cc(-c3cncc(-c4ccccc4)c3)cc1CC2 [Example 162, 9-fluoro-1-methyl-7-(5-phenyl-pyridin-3-yl)-4,5-dihydro-[1,2,4]triazolo[4,3-a]quinoline]	0.428 µM	7.1 nM		
Cc1nnc2n1-c1c(F)cc(-c3cncc(C(F)(F)F)c3)cc1CC2 [Example 161, 9-fluoro-1-methyl-7-(5-trifluoromethyl-pyridin-3-yl)-4,5-dihydro-[1,2,4]triazolo [4,3-a]quinoline]	3.57 µM	57.2 nM		
COc1c(C)cncc1-c1cc2c(cc1F)-n1c(C)nnc1CC2 [Example 122, 8-fluoro-7-(4-methoxy-5-methylpyridin-3-yl)-1-methyl-4,5-dihydro-[1,2,4]triazolo[4,3-a]quinoline]			> 10 µM	32 nM
COc1cncc(-c2cc(F)c3c(c2)CCc2nnc(C)n2-3)c1 [Example 158, 9-fluoro-7-(5-methoxy-pyridin-3-yl)-1-methyl-4,5-dihydro-[1,2,4]triazolo[4,3-a] quinoline]	1.81 µM	20.3 nM		
Cc1nnc2n1-c1c(F)cc(-c3cncc4ccccc34)cc1CC2 [Example 164, 9-fluoro-7-isoquinolin-4-yl-1-methyl-4,5-dihydro-[1,2,4]triazolo[4,3-a]quinoline]	0.11 µM	2.2 nM		
Cc1nnc2n1-c1cc(F)c(-c3cccnc3)cc1CC2 [Example 167, 8-fluoro-1-methyl-7-pyridin-3-yl-4,5-dihydro-[1,2,4]triazolo[4,3-a]quinoline]	12.6 µM	131 nM		
Cc1nnc2n1-c1c(F)cc(-c3cncc(C(C)O)c3)cc1CC2 (stereo not shown) [Example 159, 1-[5-(9-fluoro-1-methyl-4,5-dihydro-[1,2,4]triazolo[4,3-a]quinolin-7-yl)-pyridin-3-yl]-ethanol]	3.91 µM	28.3 nM		

Continued, values first:

IC50 (human CYP11B1 [1])	IC50 (human CYP11B2 [2])	IC50 (human CYP11B1 [3])	IC50 (human CYP11B2 [4])	Compound
1.77 µM	4.2 nM			Cc1ccncc1-c1cc(F)c2c(c1)CCc1nnc(C)n1-2 [Example 163, 9-fluoro-1-methyl-7-(4-methyl-pyridin-3-yl)-4,5-dihydro-[1,2,4]triazolo[4,3-a]quinoline]
		> 30 µM	22 nM	Cc1nnc2n1-c1c(Cl)cc(-c3cnccc3C(F)(F)F)cc1CC2 [Example 83, 9-chloro-1-methyl-7-(4-(trifluoromethyl)pyridin-3-yl)-4,5-dihydro-[1,2,4] triazolo[4,3-a]quinoline]
3.07 µM	11 nM			CCc1c(F)cncc1-c1cc(F)c2c(c1)CCc1nnc(C)n1-2 [Example 169, 7-(4-ethyl-5-fluoropyridin-3-yl)-9-fluoro-1-methyl-4,5-dihydro-[1,2,4]triazolo[4,3-a]quinoline]
17 µM	62.5 nM			Cc1nnc2n1-c1c(F)cc(-c3cccnc3)cc1CC2 [Example 165, 9-fluoro-1-methyl-7-pyridin-3-yl-4,5-dihydro-[1,2,4]triazolo[4,3-a]quinoline]
7.9 µM	244 nM			Fc1cc2c(cc1-c1cccnc1)CCc1nncn1-2 [Example 168, 8-fluoro-7-pyridin-3-yl-4,5-dihydro-[1,2,4]triazolo[4,3-a]quinoline]
		6.93 µM	48 nM	Cc1nnc2n1-c1c(Cl)cc(-c3cnccc3C3CC3)cc1CC2 [Example 96, 9-chloro-7-(4-cyclopropylpyridin-3-yl)-1-methyl-4,5-dihydro-[1,2,4]triazolo[4,3-a]quinoline]
6.97 µM	87.6 nM			CC(=O)c1cncc(-c2cc(F)c3c(c2)CCc2nnc(C)n2-3)c1 [Example 160, 1-[5-(9-fluoro-1-methyl-4,5-dihydro-[1,2,4]triazolo[4,3-a]quinolin-7-yl)-pyridin-3-yl]-ethanone]
		0.765 µM	6 nM	9-chloro-7-(5-chloro-4- methylpyridin-3-yl)-1- methyl-4,5-dihydro- [1,2,4]triazolo[4,3- a]quinoline [Example 93]
		> 10 µM	17 nM	Cc1nnc2n1-c1cc(Cl)c(-c3cncc4ccccc34)cc1CC2 [Example 113, 8-chloro-7-(isoquinolin-4-yl)-1-methyl-4,5-dihydro-[1,2,4]triazolo[4,3-a]quinoline]
17.3 µM	41 nM			CCc1c(F)cncc1-c1cc2c(c(F)c1F)-n1c(C)nnc1CC2 [Example 170, 7-(4-ethyl-5-fluoropyridin-3-yl)-8,9-difluoro-1-methyl-4,5-dihydro-[1,2,4]triazolo[4,3-a]quinoline]
